According to patent US11230543B2, “Biaryl monobactam compounds and methods of use thereof for the treatment of bacterial infections” (priority 2015, dated 2022):
Structures can show the parent of a compound that is named as a salt.

Columns and labels:
[1] = system: Klebsiella pneumoniae expressing KPC-1 (CL6569); test: Antibiotic activity: growth inhibitory concentration (OD600), Klebsiella pneumoniae CL6569; assay type: cell-based; conditions: lowest concentration inhibiting 95% of bacterial growth; in the presence of β lactamase inhibitor Relebactam 4 μg/mL; 35±2° C. for 22 hours; tested range 100 μM to 0.098 μM
Procedure, shortened: (§1)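 Clinical strains at ~2×10^5 CFU/mL in cation-adjusted Mueller-Hinton II broth, with relebactam at 4 μg/mL final; compounds 100 μM to 0.098 μM final. After 22 hours at 35±2° C, OD600 read; MITC95 is lowest concentration giving 95% growth inhibition.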

[2] = system: Pseudomonas aeruginosa expressing AmpC (CL5701); test: Antibiotic activity: growth inhibitory concentration (OD600), Pseudomonas aeruginosa CL5701; assay type: cell-based; conditions: lowest concentration inhibiting 95% of bacterial growth; in the presence of β lactamase inhibitor Relebactam 4 μg/mL; 35±2° C. for 22 hours; tested range 100 μM to 0.098 μM
Procedure, shortened: as §1

| SMILES | KP_CL6569 MITC95 [1] [µM] | PA_CL5701 MITC95 [2] [µM] |
| --- | --- | --- |
| C[n+]1ccc(-c2ccc(OC[C@H](O/N=C(\C(=O)N[C@@H]3C(=O)N(OS(=O)(=O)[O-])C3(C)C)c3csc(N)n3)C(=O)O)cc2)cc1NCC1CNC1 [Example 65, (S)-3-((Z)-2-(2-aminothiazol-4-yl)-2-(((S)-2-(4-(2-((azetidin-3-ylmethyl)amino)-1-methylpyridin-1-ium-4-yl)phenoxy)-1-carboxy-ethoxy)imino)acetamido)-2,2-dimethyl-4-oxoazetidin-1-yl sulfate] | 0.3906 | 12.5 |
| CC1(C)[C@H](NC(=O)/C(=N\O[C@@H](COc2ccc(-c3cn(CCCN)[n+](CC4(F)CNC4)c3)cc2)C(=O)O)c2csc(N)n2)C(=O)N1OS(=O)(=O)[O-] [Example 119, (S)-3-((Z)-2-(((S)-2-(4-(1-(3-aminopropyl)-2-((3-fluoroazetidin-3-yl)methyl)-1H-pyrazol-2-ium-4-yl)phenoxy)-1-carboxyethoxy)imino)-2-(2-aminothiazol-4-yl)acetamido)-2,2-dimethyl-4-oxoazetidin-1-yl sulfate] | 0.3906 | 6.25 |
| CC(CN)Nc1ccc(-c2ccc(OC[C@H](O/N=C(\C(=O)N[C@@H]3C(=O)N(OS(=O)(=O)[O-])C3(C)C)c3csc(N)n3)C(=O)O)cc2)c[n+]1C (stereo partly drawn) [Example 75, (3S)-3-((Z)-2-(((1S)-2-(4-(6-((1-aminopropan-2-yl)amino)-1-methylpyridin-1-ium-3-yl)phenoxy)-1-carboxyethoxy)imino)-2-(2-aminothiazol-4-yl)acetamido)-2,2-dimethyl-4-oxoazetidin-1-yl sulfate] | 0.1953 | 3.125 |
| C[n+]1c(N)c(-c2ccc(OC[C@H](O/N=C(\C(=O)N[C@@H]3C(=O)N(OS(=O)(=O)[O-])C3(C)C)c3csc(N)n3)C(=O)O)cc2F)cn1CCCN [Example 47, (S)-3-((Z)-2-(((S)-2-(4-(3-Amino-1-(3-aminopropyl)-2-methyl-1H-pyrazol-2-ium-4-yl)-3-fluorophenoxy)-1-carboxyethoxy)imino)-2-(2-aminothiazol-4-yl)acetamido)-2,2-dimethyl-4-oxoazetidin-1-yl sulfate] | 0.3906 | 3.125 |
| CC1(C)[C@H](NC(=O)/C(=N\O[C@@H](COc2ccc(C3CN=C(NCCN)N3)cc2)C(=O)O)c2csc(N)n2)C(=O)N1OS(=O)(=O)O (stereo partly drawn) [Example 60, (2S)-3-(4-(2-((2-aminoethyl)amino)-4,5-dihydro-1H-imidazol-5-yl)phenoxy)-2-((((Z)-1-(2-aminothiazol-4-yl)-2-(((S)-2,2-dimethyl-4-oxo-1-(sulfooxy)azetidin-3-yl)amino)-2-oxoethylidene)amino)oxy)propanoic acid] | 0.3906 | 3.125 |
| C[n+]1cc(-c2ccc(OC[C@H](O/N=C(\C(=O)N[C@@H]3C(=O)N(OS(=O)(=O)[O-])C3(C)C)c3csc(N)n3)C(=O)O)cc2F)ccc1NCCN [Example 68, (S)-3-((Z)-2-(((S)-2-(4-(6-((2-aminoethyl)amino)-1-methylpyridin-1-ium-3-yl)-3-fluorophenoxy)-1-carboxyethoxy)imino)-2-(2-aminothiazol-4-yl)acetamido)-2,2-dimethyl-4-oxoazetidin-1-yl sulfate] | 0.1953 | 3.125 |
| CC1(C)[C@H](NC(=O)/C(=N\O[C@H](COc2ccc(Nc3nccn3CCCN)nc2)C(=O)O)c2csc(N)n2)C(=O)N1OS(=O)(=O)O [Example 37B, 3-(2-((5-((R)-2-((((Z)-1-(2-aminothiazol-4-yl)-2-(((S)-2,2-dimethyl-4-oxo-1-(sulfooxy)azetidin-3-yl)amino)-2-oxoethylidene)amino)oxy)-2-carboxyethoxy)pyridin-2-yl)amino)-1H-imidazol-1-yl)propan-1-aminium 2,2,2-trifluoroacetate] | 6.25 | 25 |
